Activity calls are given as the source filed them. No cut-off for these calls is given here.
What was measured:
[1] = target: T1, Glycogen phosphorylase, muscle form (Oryctolagus cuniculus, UniProt P00489); experiment: Competitive inhibition of rabbit muscle glycogen phosphorylase-b using alpha-D-glucose-1-phosphate as substrate by Dixon plot analysis
T1 sequence (P00489 whole entry): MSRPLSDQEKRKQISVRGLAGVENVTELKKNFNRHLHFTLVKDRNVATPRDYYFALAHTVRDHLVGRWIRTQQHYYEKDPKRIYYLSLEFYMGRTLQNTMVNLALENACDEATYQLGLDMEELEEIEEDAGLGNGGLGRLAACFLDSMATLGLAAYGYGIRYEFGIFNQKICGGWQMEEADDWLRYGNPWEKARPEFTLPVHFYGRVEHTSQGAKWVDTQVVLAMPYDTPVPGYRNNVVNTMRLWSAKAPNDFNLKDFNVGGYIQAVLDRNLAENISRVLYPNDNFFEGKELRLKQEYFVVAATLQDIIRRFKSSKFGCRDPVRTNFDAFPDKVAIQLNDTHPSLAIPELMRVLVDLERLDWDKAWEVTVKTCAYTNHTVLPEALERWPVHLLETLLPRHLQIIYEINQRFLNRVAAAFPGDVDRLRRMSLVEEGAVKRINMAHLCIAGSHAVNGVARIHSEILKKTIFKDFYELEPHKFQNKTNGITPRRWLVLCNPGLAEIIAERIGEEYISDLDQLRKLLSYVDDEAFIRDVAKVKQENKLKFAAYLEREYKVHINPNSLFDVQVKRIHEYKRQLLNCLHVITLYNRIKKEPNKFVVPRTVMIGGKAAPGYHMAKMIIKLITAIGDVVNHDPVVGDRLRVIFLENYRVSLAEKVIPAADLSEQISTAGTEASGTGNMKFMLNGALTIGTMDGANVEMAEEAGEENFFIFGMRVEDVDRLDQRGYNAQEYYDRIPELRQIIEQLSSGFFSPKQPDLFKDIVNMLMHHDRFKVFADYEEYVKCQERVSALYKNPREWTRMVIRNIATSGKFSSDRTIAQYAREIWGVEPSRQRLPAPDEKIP

[2] = target: T1, Glycogen phosphorylase, muscle form
[3] = target: T2, Glycogen phosphorylase, muscle form (Oryctolagus cuniculus) (UniProt P00489); experiment: Inhibition of rabbit muscle glycogen phosphorylase-b using alpha-D-glucose-1-phosphate as substrate at 625 uM by Dixon plot analysis
T2 sequence (whole entry): T1 sequence (P00489 whole entry)

Structure (SMILES) | Ki [1] [µM] | also measured
OC[C@H]1O[C@@H](c2nc(-c3ccc4ccccc4c3)cs2)[C@H](O)[C@@H](O)[C@@H]1O | 158 | –
OC[C@H]1O[C@@H](c2nc(-c3ccccc3)c[nH]2)[C@H](O)[C@@H](O)[C@@H]1O | 0.28 | –
OC[C@H]1O[C@@H](c2nc3ccccc3s2)[C@H](O)[C@@H](O)[C@@H]1O | – | Ki [2]: 229 µM
OC[C@H]1O[C@@H](c2nc(-c3ccccc3)cs2)[C@H](O)[C@@H](O)[C@@H]1O | 310 | –
OC[C@H]1O[C@@H](c2nc(-c3ccc4ccccc4c3)c[nH]2)[C@H](O)[C@@H](O)[C@@H]1O | 0.031 | –
OC[C@H]1O[C@@H](c2cc(-c3ccccc3)n[nH]2)[C@H](O)[C@@H](O)[C@@H]1O | – | Ki [2]: 400 µM
OC[C@H]1O[C@@H](c2cc(-c3ccccc3)on2)[C@H](O)[C@@H](O)[C@@H]1O | – | inhibition [3]: inactive
